Laboratory results as given in EP1624852B1, “SUN TANNING PRODUCTS AND PRODUCTS FOR TREATMENT OF THE SKIN BEFORE AND AFTER EXPOSURE TO THE SUN” (Gecomwert Anstalt, priority 2003, dated 2004).

Test system: skin of the forearm
Test: in vivo tanning test: skin colour read with Minolta CR 200 Chromameter after UVA irradiation
Set-up: species or system volunteers
Settings: for Percentage increase WHITE (-L*) / Percentage increase RED (a*) / Percentage increase YELLOW (B*): 15 volunteers, forearm skin, UVA 10 minutes every 24 hours, irradiated untreated skin = 100%
Experimental: In order to evaluate the effectiveness of the group of components in question in extending the formation of a tan, an in vivo test with a cream containing tyrosine conjugated with 0.750 oleic acid was carried out in vivo on 15 volunteers over a period of 14 days. Three adjacent zones on the skin of the forearm of each volunteer were identified. The first irradiated zone was treated with an emulsion containing only a sun filter (placebo), the second with an emulsion containing both the filter and the lipophilic tyrosine, the third was not treated with any emulsion (control) . The three zones of the skin were irradiated simultaneously with UVA light for 10 minutes every 24 hours (1 hour after application of the creams) for two weeks. The skin colour was read instrumentally using the Minolta® CR 200 Chromameter instrument, a device for measuring the colour of surfaces which is capable of analysing the strength of the colouration using a Xenon lamp, subdividing it into three different parameters (corresponding to the white component (-L*), the red component (a*) and the yellow component (B*)). Each reading was made 24 hours after each exposure to UVA light, in order to minimise instantaneous pigmentation phenomena. The average percentage increase in the colour of the skin treated with lipophilic tyrosine in comparison with the portion of the skin treated with placebo was calculated, assigning a value of 100% to the strength of the colour of the irradiated skin in the absence of emulsion.
Values of the average percentage increase in the white, red and yellow parameters found are shown in the following table: Percentage increase in the 3 parameters

tyrosine conjugated with oleic acid
Percentage increase WHITE (-L*) (1st day, emulsion with filter and lipophilic tyrosine vs placebo (filter only), reading 24 hours after exposure): -70.20%
Percentage increase RED (a*) (1st day, vs placebo): 66.60%
Percentage increase RED (a*) (6th day, vs placebo): 73.16%
Percentage increase WHITE (-L*) (6th day, vs placebo): -79.00%
Percentage increase YELLOW (B*) (6th day, vs placebo): 62.26%
Percentage increase RED (a*) (Mean after 14 days, vs placebo): 73.50%
Percentage increase WHITE (-L*) (Mean after 14 days, vs placebo): -69.00%
Percentage increase YELLOW (B*) (Mean after 14 days, vs placebo): 65.00%
decrease in white with simultaneous increase in the red and yellow components over time (treated skin in comparison with skin treated with placebo): significantly greater
